The compounds below were run against neutrophil elastase (Homo sapiens (Human), UniProt P08246) (assay: biochemical). Conditions: IC50.
Type: biochemical
Method: Human Neutrophil Elastase Assay
All other materials were of the highest grade commercially available.
The following buffers were used: Compound buffer: 100 mM Tris, 500 mM NaCl, adjusted to pH 7.5; Assay buffer: 100 mM Tris, 500 mM NaCl, adjusted to pH 7.5, containing 0.01% BSA.
Assay conditions: Test compounds were prediluted in DMSO and subsequently in compound buffer (5% DMSO final). […] After inactivation of the enzyme, fluorescence intensities were measured at 380 nm excitation and 460 nm emission wavelengths.
Each plate contains wells with a high value control (DMSO+enzyme+substrate) and wells with a low value control (DMSO+inactivated enzyme+substrate). IC50 values were estimated using a sigmoidal concentration response curve with variable slope. Means of low values were taken as 0%, means of high values as 100%.

Sequence of neutrophil elastase (P08246 whole entry, looked up): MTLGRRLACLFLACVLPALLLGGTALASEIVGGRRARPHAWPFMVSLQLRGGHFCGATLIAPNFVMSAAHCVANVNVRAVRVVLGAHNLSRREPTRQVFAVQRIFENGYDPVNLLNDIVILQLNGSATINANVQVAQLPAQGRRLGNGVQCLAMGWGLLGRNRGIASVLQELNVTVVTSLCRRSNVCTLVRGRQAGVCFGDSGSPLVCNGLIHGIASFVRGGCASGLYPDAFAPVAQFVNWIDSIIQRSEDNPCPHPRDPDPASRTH

Question: How did the IC50 turn out when `CCNC(=O)N1C(=O)N(c2ccnc(C(F)(F)F)c2)C2=C(C(=O)CC2)C1c1ccc(C#N)cc1S(=O)(=O)CC` (racemic) [Example D.4.1, 4-(4-cyano-2-ethanesulfonyl-phenyl)-2,5-dioxo-1-(2-trifluoromethyl-pyridin-4-yl)-1,2,4,5,6,7-hexahydro-cyclopentapyrimidine-3-carboxylic acid ethylamide] was run?
Answer: < 1 nM

Question: `CN1C(=O)N(c2cccc(C(F)(F)F)c2)C2=C(C(=O)CC2)C1c1ccc(C#N)cc1CO` (single isomer, unassigned) [Example A.1B, 3-Hydroxymethyl-4-[3-methyl-2,5-dioxo-1-(3-trifluoromethyl-phenyl)-2,3,4,5,6,7-hexahydro-1H-cyclopentapyrimidin-4-yl]-benzonitrile] was tested. Which IC50 did it give?
Answer: 2780 nM

Question: How did the IC50 turn out when `CCS(=O)(=O)c1cc(C#N)ccc1C1C2=C(CCC2=O)N(c2ccnc(C(F)(F)F)c2)C(=O)N1C` (single isomer, unassigned) [Example D.3A, 3-Ethanesulfonyl-4-[3-methyl-2,5-dioxo-1-(2-trifluoromethyl-pyridin-4-yl)-2,3,4,5,6,7-hexahydro-1H-cyclopentapyrimidin-4-yl]-benzonitrile] was run?
Answer: 2810 nM

Question: For `CCS(=O)(=O)c1cc(C#N)ccc1C1NC(=O)N(c2cccc(C(F)F)c2)C2=C1C(=O)CC2` (single isomer, unassigned) [Example D.5B, 4-[1-(3-Difluoromethyl-phenyl)-2,5-dioxo-2,3,4,5,6,7-hexahydro-1H-cyclopentapyrimidin-4-yl]-3-ethanesulfonyl-benzonitrile], which IC50 is on record?
Answer: 892 nM

Same assay, conditions: IC50, Neutrophil Elastase assay, substrate MeOSuc-Ala-Ala-Pro-Val-AMC

Question: For `CN1C(=O)N(c2cccc(C(F)(F)F)c2)C2=C(C(=O)CC2)C1c1ccc(C#N)cc1S(=O)(=O)CCO` (single isomer, unassigned) [Example B.1.2A], which IC50 is on record?
Answer: 224 nM

Same assay, conditions: Neutrophil Elastase assay, substrate MeOSuc-Ala-Ala-Pro-Val-AMC; read-out: IC50

Question: With `CCNC(=O)N1C(=O)N(c2ccnc(C(F)(F)F)c2)C2=C(C(=O)CC2)C1c1ccc(C#N)cc1S(C)(=O)=O` (single isomer, unassigned) [D.4.10] as the compound, how does the IC50 read?
Answer: < 1 nM

Question: How did the IC50 turn out when `CN1C(=O)N(c2cccc(C(F)(F)F)c2)C2=C(C(=O)CC2)C1c1ccc(C#N)cc1[S+](C)[O-]` (single isomer, unassigned) [Example C.1A, 3-Methanesulfinyl-4-[3-methyl-2,5-dioxo-1-(3-trifluoromethyl-phenyl)-2,3,4,5,6,7-hexahydro-1H-cyclopentapyrimidin-4-yl]-benzonitrile] was run?
Answer: 1820 nM

Question: `CN1C(=O)N(c2cccc(C(F)(F)F)c2)C2=C(C(=O)CC2)C1c1ccc(C#N)cc1[S+](C)[O-]` (single isomer, unassigned) [Example C.2B, 3-Methanesulfinyl-4-[3-methyl-2,5-dioxo-1-(3-trifluoromethyl-phenyl)-2,3,4,5,6,7-hexahydro-1H-cyclopentapyrimidin-4-yl]-benzonitrile] was tested. Which IC50 did it give?
Answer: 13 nM

Question: How did the IC50 turn out when `CCNC(=O)N1C(=O)N(c2ccnc(C(F)(F)F)c2)C2=C(C(=O)CC2)C1c1ccc(C#N)cc1S(=O)(=O)CC` (single isomer, unassigned) [Example D.4.1B, 4-(4-cyano-2-ethanesulfonyl-phenyl)-2,5-dioxo-1-(2-trifluoromethyl-pyridin-4-yl)-1,2,4,5,6,7-hexahydro-cyclopentapyrimidine-3-carboxylic acid ethylamide] was run?
Answer: 338 nM

Question: Which IC50 does the source give for `COCCS(=O)(=O)c1cc(C#N)ccc1C1NC(=O)N(c2cccc(C(F)(F)F)c2)C2=C1C(=O)CC2` (stereo not shown) [B.1.1] here?
Answer: 5.7 nM

Question: For `COCCS(=O)(=O)c1cc(C#N)ccc1C1C2=C(CCC2=O)N(c2cccc(C(F)(F)F)c2)C(=O)N1C` (stereo not shown) [B.1.4], which IC50 is on record?
Answer: < 1 nM

Question: With `CS(=O)(=O)c1cc(C#N)ccc1C1NC(=O)N(c2cncc(C(F)(F)F)c2)C2=C1C(=O)CC2` (stereo not shown) [D.2.1] as the compound, how does the IC50 read?
Answer: 60 nM

Question: Which IC50 does the source give for `CS(=O)(=O)c1cc(C#N)ccc1C1NC(=O)N(c2cc(C(F)(F)F)ccn2)C2=C1C(=O)CC2` (stereo not shown) [D.2.2] here?
Answer: 65 nM

Question: For `CS(=O)(=O)c1cc(C#N)ccc1C1NC(=O)N(c2cncc(Br)c2)C2=C1C(=O)CC2` (stereo not shown) [D.2.3], which IC50 is on record?
Answer: 101 nM

Question: How did the IC50 turn out when `CS(=O)(=O)c1cc(C#N)ccc1C1NC(=O)N(c2cncc(Cl)c2)C2=C1C(=O)CC2` (stereo not shown) [D.2.4] was run?
Answer: 103 nM

Question: `CN1C(=O)N(c2cncc(C(F)(F)F)c2)C2=C(C(=O)CC2)C1c1ccc(C#N)cc1S(C)(=O)=O` (stereo not shown) [D.3.1] was tested. Which IC50 did it give?
Answer: 8.8 nM

Question: `CN1C(=O)N(c2cncc(Br)c2)C2=C(C(=O)CC2)C1c1ccc(C#N)cc1S(C)(=O)=O` (stereo not shown) [D.3.3] was tested. Which IC50 did it give?
Answer: 13 nM

Question: With `CN1C(=O)N(c2cncc(Cl)c2)C2=C(C(=O)CC2)C1c1ccc(C#N)cc1S(C)(=O)=O` (stereo not shown) [D.3.4] as the compound, how does the IC50 read?
Answer: 8.1 nM

Question: With `CNC(=O)N1C(=O)N(c2cncc(C(F)(F)F)c2)C2=C(C(=O)CC2)C1c1ccc(C#N)cc1S(C)(=O)=O` (stereo not shown) [D.4.2] as the compound, how does the IC50 read?
Answer: < 1 nM

Question: For `CCNC(=O)N1C(=O)N(c2cncc(C(F)(F)F)c2)C2=C(C(=O)CC2)C1c1ccc(C#N)cc1S(C)(=O)=O` (stereo not shown) [D.4.3], which IC50 is on record?
Answer: < 1 nM

Question: `CNC(=O)N1C(=O)N(c2cncc(Br)c2)C2=C(C(=O)CC2)C1c1ccc(C#N)cc1S(C)(=O)=O` (stereo not shown) [D.4.6] was tested. Which IC50 did it give?
Answer: 1.2 nM

Question: `CCNC(=O)N1C(=O)N(c2cncc(Br)c2)C2=C(C(=O)CC2)C1c1ccc(C#N)cc1S(C)(=O)=O` (stereo not shown) [D.4.7] was tested. Which IC50 did it give?
Answer: < 1 nM

Question: With `CCNC(=O)N1C(=O)N(c2cncc(Cl)c2)C2=C(C(=O)CC2)C1c1ccc(C#N)cc1S(C)(=O)=O` (stereo not shown) [D.4.9] as the compound, how does the IC50 read?
Answer: < 1 nM

Question: For `N#Cc1ccc(C2NC(=O)N(c3cccc(C(F)(F)F)c3)C3=C2C(=O)CC3)c(S(=O)(=O)CCCO)c1` (stereo not shown) [Example B.1, 4-[2,5-Dioxo-1-(3-trifluoromethyl-phenyl)-2,3,4,5,6,7-hexahydro-1H-cyclopentapyrimidin-4-yl]-3-(3-hydroxy-propane-1-sulfonyl)-benzonitrile], which IC50 is on record?
Answer: 2.1 nM

Question: With `CCNC(=O)N1C(=O)N(c2cccc(C(F)(F)F)c2)C2=C(C(=O)CC2)C1c1ccc(C#N)cc1[S+](C)[O-]` (stereo not shown) [Example C.3, 4-(4-Cyano-2-methanesulfinyl-phenyl)-2,5-dioxo-1-(3-trifluoromethyl-phenyl)-1,2,4,5,6,7-hexahydro-cyclopentapyrimidine-3-carboxylic acid ethylamide] as the compound, how does the IC50 read?
Answer: < 1 nM

Question: How did the IC50 turn out when `CCS(=O)(=O)c1cc(C#N)ccc1C1NC(=O)N(c2ccnc(C(F)(F)F)c2)C2=C1C(=O)CC2` (stereo not shown) [Example D.2, 4-[2,5-Dioxo-1-(2-trifluoromethyl-pyridin-4-yl)-2,3,4,5,6,7-hexahydro-1H-cyclopentapyrimidin-4-yl]-3-ethanesulfonyl-benzonitrile] was run?
Answer: 24 nM

Question: Which IC50 does the source give for `CCS(=O)(=O)c1cc(C#N)ccc1C1C2=C(CCC2=O)N(c2ccnc(C(F)(F)F)c2)C(=O)N1C(=O)NC` (stereo not shown) [Example D.4, 4-(4-Cyano-2-ethanesulfonyl-phenyl)-2,5-dioxo-1-(2-trifluoromethyl-pyridin-4-yl)-1,2,4,5,6,7-hexahydro-cyclopentapyrimidine-3-carboxylic acid methylamide] here?
Answer: < 1 nM

Same assay, conditions: read-out: IC50

Question: `CCS(=O)(=O)c1cc(C#N)ccc1C1C2=C(CCC2=O)N(c2ccnc(C(F)(F)F)c2)C(=O)N1C` (racemic) [Example D.3, 3-Ethanesulfonyl-4-[3-methyl-2,5-dioxo-1-(2-trifluoromethyl-pyridin-4-yl)-2,3,4,5,6,7-hexahydro-1H-cyclopentapyrimidin-4-yl]-benzonitrile] was tested. Which IC50 did it give?
Answer: 4 nM

Question: How did the IC50 turn out when `CCS(=O)(=O)c1cc(C#N)ccc1C1NC(=O)N(c2cccc(C(F)F)c2)C2=C1C(=O)CC2` (racemic) [Example D.5, 4-[1-(3-Difluoromethyl-phenyl)-2,5-dioxo-2,3,4,5,6,7-hexahydro-1H-cyclopentapyrimidin-4-yl]-3-ethanesulfonyl-benzonitrile] was run?
Answer: 5.5 nM

Question: With `CC[S+]([O-])c1cc(C#N)ccc1C1NC(=O)N(c2cccc(C(F)(F)F)c2)C2=C1C(=O)CC2` (single isomer, unassigned) [Example C.4.1, 4-[2,5-Dioxo-1-(3-trifluoromethyl-phenyl)-2,3,4,5,6,7-hexahydro-1H-cyclopentapyrimidin-4-yl]-3-ethanesulfinyl-benzonitrile] as the compound, how does the IC50 read?
Answer: 5.2 nM

Question: `CC[S+]([O-])c1cc(C#N)ccc1C1NC(=O)N(c2cccc(C(F)(F)F)c2)C2=C1C(=O)CC2` (single isomer, unassigned) [Example C.4.2, 4-[2,5-Dioxo-1-(3-trifluoromethyl-phenyl)-2,3,4,5,6,7-hexahydro-1H-cyclopentapyrimidin-4-yl]-3-ethanesulfinyl-benzonitrile] was tested. Which IC50 did it give?
Answer: 8.9 nM

Question: Which IC50 does the source give for `CC[S+]([O-])c1cc(C#N)ccc1C1C2=C(CCC2=O)N(c2cccc(C(F)(F)F)c2)C(=O)N1C(=O)NC` (single isomer, unassigned) [Example C.6.1, 4-(4-Cyano-2-ethanesulfinyl-phenyl)-2,5-dioxo-1-(3-trifluoromethyl-phenyl)-1,2,4,5,6,7-hexahydro-cyclopentapyrimidine-3-carboxylic acid methylamide] here?
Answer: < 1 nM

Question: Which IC50 does the source give for `CC[S+]([O-])c1cc(C#N)ccc1C1C2=C(CCC2=O)N(c2cccc(C(F)(F)F)c2)C(=O)N1C(=O)NC` (single isomer, unassigned) [Example C.6.2, 4-(4-Cyano-2-ethanesulfinyl-phenyl)-2,5-dioxo-1-(3-trifluoromethyl-phenyl)-1,2,4,5,6,7-hexahydro-cyclopentapyrimidine-3-carboxylic acid methylamide] here?
Answer: < 1 nM

Question: For `CN1C(=O)N(c2cc(C(F)(F)F)ccn2)C2=C(C(=O)CC2)C1c1ccc(C#N)cc1S(C)(=O)=O` (stereo not shown) [D.3.2], which IC50 is on record?
Answer: 9.5 nM

Question: With `CNC(=O)N1C(=O)N(c2cncc(Cl)c2)C2=C(C(=O)CC2)C1c1ccc(C#N)cc1S(C)(=O)=O` (stereo not shown) [D.4.8] as the compound, how does the IC50 read?
Answer: < 1 nM

Question: Which IC50 does the source give for `CN1C(=O)N(c2cccc(C(F)(F)F)c2)C2=C(C(=O)CC2)C1c1ccc(C#N)cc1CO` (stereo not shown) [Example A.1, 3-Hydroxymethyl-4-[3-methyl-2,5-dioxo-1-(3-trifluoromethyl-phenyl)-2,3,4,5,6,7-hexahydro-1H-cyclopentapyrimidin-4-yl]-benzonitrile] here?
Answer: 1.6 nM

Question: With `CCS(=O)(=O)c1cc(C#N)ccc1C1C2=C(CCC2=O)N(c2cccc(C(F)F)c2)C(=O)N1C` (stereo not shown) [Example D.6, 4-[1-(3-Difluoromethyl-phenyl)-3-methyl-2,5-dioxo-2,3,4,5,6,7-hexahydro-1H-cyclopentapyrimidin-4-yl]-3-ethanesulfonyl-benzonitrile] as the compound, how does the IC50 read?
Answer: < 1 nM

— patent US9475779B2, “Substituted bicyclic dihydropyrimidinones and their use as inhibitors of neutrophil elastase activity” (priority 2014, dated 2016)
